Experimental data: patent US20140051678A1, “INHIBITORS OF THE ACTIVITY OF COMPLEX III OF THE MITOCHONDRIAL ELECTRON TRANSPORT CHAIN AND USE THEREOF FOR TREATING DISEASES” (STEMERGIE BIOTECHNOLOGY SA, priority 2010, published 2014)
Like-named read-outs stand apart in the source and are kept apart here.

How the values were obtained:
HepG2 cells = assay: MTT cytotoxicity / mitochondrial toxicity assay, glucose vs galactose medium, HepG2; type: cell-based, Human; conditions: for AC50: Homo sapiens
Experimental: (§1) Human hepatocellular liver carcinoma cells (HepG2) or Human glioblastoma-astrocytoma, epithelial-like cells (U-87 MG) were plated on 96-well tissue culture treated polystyrene plates at 0.5×10^4 cells in 100 μL of Dulbecco's modified Eagle's medium containing either galactose or glucose supplemented with 10% foetal bovine serum and antibiotics per well. After 24 hr the cells are dosed with test compound at a range of concentrations and incubated for 72 nr. One hour prior to the end of the incubation period, the cells are loaded with MTT [yellow; 3-(4,5-dimethyl-2-thiazolyl)-2,5-diphenyl-2H-tetrazolium bromide], the plates are dried and re-solubilised using DMSO. The plates are then scanned using SpectraFluor Plus (TECAN).
(§2) To measure the relative sensitivity of HepG2 or U-87 MG cells grown in medium containing either galactose or glucose to the test compound.
(§3) Cytotoxicity was assessed using MTT. The assay provides a measurement of mitochondrial dehydrogenase activity and cell loss.
(§4) Cell Loss: A decrease can indicate a loss of cells indicating toxicity due to necrosis, apoptosis or a reduction in cellular proliferation.
(§5) Mitochondrial Activity: A decrease can also indicate an effect on mitochondrial function as mitochondrial dehydrogenases reduce the MTT [yellow; 3-(4,5-dimethyl-2-thiazolyl)-2,5-diphenyl-2H-tetrazolium bromide] to formazan. The formazan is detected in this assay (see assay protocol for details).
(§6) The AC50 is calculated from a four point logistic curve fit to determine percent survival of each test agent and control compound. The fold change is calculated from AC50 curve fit data by comparison with cells grown with glucose or galactose, A greater than 5-fold response in the presence of galactose indicates the compound is considered to be a mitochondrial toxicant.

U-87 MG cells = assay: MTT cytotoxicity / mitochondrial toxicity assay, glucose vs galactose medium, U-87 MG; type: cell-based, Human; conditions: for AC50: Homo sapiens
Experimental: as §1, §2, §3, §4, §5, §6

[1] = test system: glioma-initiating cells (GICs); assay: Short term dose response on gliomaspheres, cell death by FACS after trypan blue incorporation; type: cell-based, human; conditions: 50 μM, 48 hrs
Experimental: Short term dose response of the compound of Example 4 was performed according to the method as described in the patent application PCT no PCTIB2010/052237 (WO 2010/134039).
Briefly, gliomaspheres were dissociated, counted and plated at 10 cells/μl in DMEM-F12, 2% B27, 1% peni/strep, EGF and bFGF at 1 ng/ml. Cells were then treated with various amount of the compound for 48 hrs and cell death was analysed by FACS after incorporation of trypan blue (1/1000).

For `O=CNc1cccc(C(=O)NC2CCCCCCCC2)c1O` [Example 4, N-cyclononyl-3-formamido-2-hydroxybenzamide], the “Fold Change (AC50 glucose vs galactose)” value (HepG2 cells; HepG2, 72 h) was 9.92, the “Cell Loss - Galactose MEC” value (HepG2 cells; HepG2, galactose medium, 72 h, MTT) was 4 µM and the “Cell Loss - Glucose MEC” value (HepG2 cells; HepG2, glucose medium, 72 h, MTT) was 10 µM. For the same compound, the “Mitochondrial Toxicant” value (HepG2 cells; HepG2, greater than 5-fold response in galactose = mitochondrial toxicant) was “Yes”, the AC50 (HepG2 cells; HepG2, galactose medium, 72 h, MTT, read-out: Cell Loss - Galactose AC50) was 2400 nM and the AC50 (HepG2 cells; HepG2, glucose medium, 72 h, MTT, read-out: Cell Loss - Glucose AC50) was 23800 nM. The “Fold Change (AC50 glucose vs galactose)” value (U-87 MG cells; 72 h) was greater than 70.1, the AC50 (U-87 MG cells; galactose medium, 72 h, MTT, read-out: Cell Loss - Galactose AC50) was 1410 nM and the AC50 (U-87 MG cells; glucose medium, 72 h, MTT, read-out: Cell Loss - Glucose AC50) was greater than 100000 nM. For the same compound, the “Cell Loss - Galactose MEC” value (U-87 MG cells; galactose medium, 72 h, MTT) was 1 µM, the “Cell Loss - Glucose MEC” value (U-87 MG cells; glucose medium, 72 h, MTT) was greater than 100 µM and the “Mitochondrial Toxicant” value (U-87 MG cells; greater than 5-fold response in galactose = mitochondrial toxicant) was “Yes”. For the same compound, the “fold increase cell death” value [1] was no less than 1.2 fold.
